Structures can show the parent of a compound that is named as a salt.
What was measured:
[1] = target: T1, Oxytocin receptor (uterin muscle membrane preparation) (Rattus norvegicus, UniProt P70536); assay: Oxytocin receptor binding assay; details: [3H]-oxytocin 10^-9 M, 25°, one hour, pH 8.0, uterin muscle membrane, DES-treated
T1 construct: was homogenized, which was used as a membrane; from tissue; host or cells: uterine muscle membranes from diethylstilbestrol-treated animals
T1 sequence (P70536 1-388): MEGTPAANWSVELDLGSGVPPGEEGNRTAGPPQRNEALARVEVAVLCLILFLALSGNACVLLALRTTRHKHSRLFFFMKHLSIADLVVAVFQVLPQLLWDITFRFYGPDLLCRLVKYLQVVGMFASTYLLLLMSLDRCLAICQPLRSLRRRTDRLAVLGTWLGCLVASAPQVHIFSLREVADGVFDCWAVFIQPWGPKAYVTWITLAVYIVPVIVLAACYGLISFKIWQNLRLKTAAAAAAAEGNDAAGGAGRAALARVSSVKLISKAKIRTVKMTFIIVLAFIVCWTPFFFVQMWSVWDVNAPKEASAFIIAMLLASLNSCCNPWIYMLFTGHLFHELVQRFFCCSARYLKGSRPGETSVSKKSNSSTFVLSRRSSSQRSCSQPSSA
Summary of the method: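 Rat uterine membranes (0.2 mg; DES-primed day before) incubated 1 h at 25° with [3H]-oxytocin (10^-9 M) and compound (10^-9 to 10^-5 M) in 100 mM Tris-HCl pH 8.0, 5 mM MgCl2, 1 mM EDTA, 0.1% BSA. Filter-bound radioactivity counted; nonspecific with 5×10^-6 M oxytocin; IC50 reported.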

[2] = target: T2, V1 Recepter (rat liver plasma membrane preparations) (Rattus norvegicus, UniProt P30560); assay: V1 Recepter binding assay; details: [3H]-Arg-vasopressin 2×10^-10 M, 37° C., 10 minutes, pH 8.0, rat liver plasma membrane
T2 construct: rat liver plasma membrane preparations; from tissue; host or cells: rat liver plasma membranes
T2 sequence (P30560 whole entry): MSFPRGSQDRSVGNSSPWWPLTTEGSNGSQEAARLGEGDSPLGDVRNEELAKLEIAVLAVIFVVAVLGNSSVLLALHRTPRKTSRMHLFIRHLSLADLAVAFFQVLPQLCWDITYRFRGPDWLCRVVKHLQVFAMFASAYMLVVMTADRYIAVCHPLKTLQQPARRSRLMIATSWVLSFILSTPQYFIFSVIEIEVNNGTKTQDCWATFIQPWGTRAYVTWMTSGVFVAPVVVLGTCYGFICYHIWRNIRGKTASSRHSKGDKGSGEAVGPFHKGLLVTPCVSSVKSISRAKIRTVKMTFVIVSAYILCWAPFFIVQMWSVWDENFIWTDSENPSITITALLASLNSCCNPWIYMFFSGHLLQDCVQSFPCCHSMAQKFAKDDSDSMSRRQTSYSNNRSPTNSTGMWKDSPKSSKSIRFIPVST
Procedure: Test-1: V1 Recepter binding assay
By using rat liver plasma membrane preparations prepared according to Ichiraha's method [by Akira Ichihara: J. Bio. Chem., 258, 9283 (1983)], the plasma membrane (50,000 dpm, 2×10^-10 M) of [^3 H]-Arg-vasopressin and a test compound (60 μg, 10^-8 to 10^-4 M) were incubated at 37° C. for 10 minutes in 250 μl (in total volume) of 100 mM Tris-HCl buffer (pH=8.0), containing 5 mM MgCl2, 1 mM EDTA and 0.1% BSA. After the incubation, the mixture was filtered three times by using a glass filter (GF/F) so as to separate the membrane preparation by combining with vasopressin and then washed with the buffer (5 ml). This glass filter was taken out and mixed with a liquid of scintillation cocktail. The amount of [^3 H]-vasopressin combining with the membrane was measured by liquid scintillation counter and the rate of inhibitory effect of the test compound was calculated according to the following equation: […]
C1 : the amount of [^3 H]-vasopressin combining with the membrane in the presence of the test compound of a known amount,
(§1) C0 : the amount of [^3 H]-vasopressin combining with the membrane in the absence of the test compound,
B1 : the amount of [^3 H]-vasopressin combining with the membrane in the presence of the excess amount of vasopressin (10^-6 M).
The results are expressed as IC50 value, which is the concentration of the test compound required to achieve the inhitory effect in the rate of 50% and are shown in the following Table 156.

[3] = target: T3, V2 Recepter (rat kidney plasma membrane preparations) (Rattus norvegicus, UniProt Q00788); assay: V2 Recepter binding assay; details: [3H]-Arg-vasopressin 4×10^-10 M, 4° C., pH 8.0, rat kidney plasma membrane
T3 construct: rat kidney plasma membrane preparations; from tissue; host or cells: rat kidney plasma membranes
T3 sequence (Q00788 whole entry): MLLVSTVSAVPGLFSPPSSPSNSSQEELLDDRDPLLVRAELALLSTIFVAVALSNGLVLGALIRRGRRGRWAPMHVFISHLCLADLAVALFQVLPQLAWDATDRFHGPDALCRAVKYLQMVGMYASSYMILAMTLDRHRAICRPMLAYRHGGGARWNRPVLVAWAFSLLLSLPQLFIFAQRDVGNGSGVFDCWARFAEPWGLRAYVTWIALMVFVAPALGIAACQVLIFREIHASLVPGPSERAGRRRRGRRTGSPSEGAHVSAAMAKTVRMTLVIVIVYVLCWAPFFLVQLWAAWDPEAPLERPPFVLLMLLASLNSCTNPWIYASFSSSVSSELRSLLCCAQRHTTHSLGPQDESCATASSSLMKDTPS
Procedure: Test 2: V2 Recepter binding assay
By using rat kidney plasma membrane preparations prepared according to Hechter's method [by O. Hechter: J. Bio. Chem., 2.53, 3211 (1978)], the plasma membrane (100,000 dpm, 4×10^-10 M) of [^3 H]-Arg-vasopressin and a test compound (0.6 mg, 10^-10 to 10^-5 M) were incubated at 4° C. for 3 hours in 250 μl (in total volume) of 100 mM Tris-HCl buffer (pH=8.0), containing, 5 mM MgCl2, 1 mM EDTA and 0.1% BSA. After the incubation, the mixture, the mixture was filtered by using a glass filter (GF/F) so as to separate the membrane preparation combining with vasopressin, then washed twice with the buffer (5 ml). This glass filter was taken out and mixed with liquid scintillation cocktail. The amount of [^3 H]-vasopressin combining with the membrane was measured by a liquid scintillation counter and the rate of inhibitory effect of the test compound was calculated according to the following equation: Rate of the inhibitory
C1 : the amount of [^3 H]-vasopressin combining with the membrane in the presence of the testcompound of a known amount,
as §1
B1 : the amount of [^3 H]-vasopressin combining with the mebrane in the presence of the excess amount of vasopressin (10^-6 M).
The results are expressed as IC50 value, which is the concentration of the test compound required to achieve the inhibitory effect in the rate of 50%, and are shown in the following Table 157.

Row | SMILES | IC50 [1] | IC50 [2] | IC50 [3]
1 | COc1cc(NC(=O)c2ccccc2Cl)ccc1C(=O)N1CCCC(CC(=O)N2CCN(CC#N)CC2)c2cc(Cl)ccc21 (stereo not drawn) [Example 80, 5-(4-Cyanomethyl-1-piperazinyl)carbonylmethyl 7-chloro-1-[2-methoxy-4-(2-chlorobenzoylamino)benzoyl]-2,3,4,5-tetrahydro-1H-benzoazepine] | 84 nM | 16 nM | 9 nM
2 | CNC(=O)N1CCN(CCC2CCCN(C(=O)c3ccc(NC(=O)c4ccccc4Cl)cc3OC)c3ccc(Cl)cc32)CC1 (stereo not drawn) [Example 148, 5-[2-(4-Methylaminocarbonyl-1-piperazinyl)ethyl]-7-chloro-1-[2-methoxy-4-(2-chlorobenzoylamino)benzoyl]-2,3,4,5-tetrahydro-1H-benzoazepine] | 225 nM | 54 nM | 5 nM
3 | COc1cc(C(=O)N2CCCC(OCC(=O)NCCN3CCOCC3)c3cc(Cl)ccc32)ccc1NC(=O)c1ccccc1Br (stereo not drawn) [Example 168, 5-(2-Morpholinoethyl)aminocarbonylmethoxy-7-chloro-1-[3-methoxy-4-(2-bromobenzoylamino)benzoyl]-2,3,4,5-tetrahydro-1H-benzoazepine] | 85 nM | 10 nM | 19 nM
4 | C=CCNCCOC1CCCN(C(=O)c2ccc(NC(=O)c3ccccc3Cl)cc2OC)c2ccc(Cl)cc21 (stereo not drawn) [Example 169, 5-(2-Allylaminoethoxy)-7-chloro-1-[2-methoxy-4-(2-chlorobenzoylamino)benzoyl]-2,3,4,5-tetrahydro-1H-benzoazepine.cndot.hydrochloride] | 147 nM | 7 nM | 5.6 nM
5 | CCN1CCN(C(=O)COC2CCCN(C(=O)c3ccc(N4CCc5ccccc5C4=O)cc3)c3ccc(Cl)cc32)CC1 (stereo not drawn) [Example 128, 5-(4-Ethyl-1-piperazinyl)carbonylmethoxy-7-chloro-1-[4-(1-oxo-1,2,3,4-tetrahydroisoquinolin-2-yl)benzoyl]-2,3,4,5-tetrahydro-1H-benzoazepine] | 95 nM | 14 nM | 13 nM
6 | COc1cc(NC(=O)c2ccccc2Cl)ccc1C(=O)N1CCCC(CCN2CCN(S(C)(=O)=O)CC2)c2cc(Cl)ccc21 (stereo not drawn) [Example 146, 5-[2-(4-Methanesulfonyl-1-piperazinyl)ethyl]-7-chloro-1-[2-methoxy-4-(2-chlorobenzoylamino)-benzoyl]-2,3,4,5-tetrahydro-1H-benzoazepine] | 154 nM | 54 nM | 10 nM
7 | COc1cc(NC(=O)c2ccccc2Cl)ccc1C(=O)N1CCCC(CC(=O)NCCc2ccccn2)c2cc(Cl)ccc21 (stereo not drawn) [Example 130, 5-[2-(2-Pyridyl)ethyl]aminocarbonylmethyl-7-chloro-1-[2-methoxy-4-(2-chlorobenzoylamino)benzoyl]-2,3,4,5-tetrahydro-1H-benzoazepine] | 115 nM | 18 nM | 4 nM
8 | COc1cc(NC(=O)c2ccccc2Cl)ccc1C(=O)N1CCCC(NC(=O)c2ccccc2Cl)c2cc(Cl)ccc21 (stereo not drawn) [Example 159, 5-(2-Chlorobenzoylamino)-7-chloro-1-[2-methoxy-4-(2-chlorobenzoylamino)benzoyl]-2,3,4,5-tetrahydro-1H-benzoazepine] | 1700 nM | 280 nM | 25 nM
9 | COc1cc(NC(=O)c2ccccc2Cl)ccc1C(=O)N1CCCC(OCCNC(C)=N)c2cc(Cl)ccc21 (stereo not drawn) [Example 135, 5-[2-(1-Iminoethyl)aminoethoxy]-7-chloro-1-[2-methoxy-4-(2-chlorobenzoylamino)benzoyl]-2,3,4,5-tetrahydro-1H-benzoazepine.cndot.hydrochloride] | 146 nM | 18 nM | 4.9 nM
10 | COc1cc(NC(=O)c2ccccc2Cl)ccc1C(=O)N1CCCC(OCCNC(N)=O)c2cc(Cl)ccc21 (stereo not drawn) [Example 136, 5-(2-Ureidoethoxy)-7-chloro-1-[2-methoxy-4-(2-chlorobenzoylamino)benzoyl]-2,3,4,5-tetrahydro-1H-benzoazepine] | 151 nM | 37 nM | 4.3 nM
11 | COc1cc(NC(=O)c2ccccc2Cl)ccc1C(=O)N1CCCC(OCCNC2CC2)c2cc(Cl)ccc21 (stereo not drawn) [Example 138, 5-(2-Cyclopropylaminoethoxy)-7-chloro-1-[2-methoxy-4-(2-chlorobenzoylamino)benzoyl]-2,3,4,5-tetrahydro-1H-benzoazepine.cndot.hydrochloride] | 233 nM | 5 nM | 3 nM
12 | COc1cc(NC(=O)c2ccccc2Cl)ccc1C(=O)N1CCCC(OCCS(=O)(=O)c2ncc[nH]2)c2cc(Cl)ccc21 (stereo not drawn) [Example 145, 5-[2-(2-Imidazolyl)sulfonylethoxy]-7-chloro-1-[2-methoxy-4-(2-chlorobenzoylamino)benzoyl]-2,3,4,5-tetrahydro-1H-benzoazepine] | 849 nM | 91 nM | 14 nM
13 | CCN(CC)CCCNCCOC1CCCN(C(=O)c2ccc(NC(=O)c3ccccc3Cl)cc2OC)c2ccc(Cl)cc21 (stereo not drawn) [Example 153, 5-[2-(3-Diethylaminopropyl)aminoethoxy]-7-chloro-1-[2-methoxy-4-(2-chlorobenzoylamino)benzoyl]-2,3,4,5-tetrahydro-1H-benzoazepine] | 248 nM | 36 nM | 5 nM
14 | CNC(=S)NCCOC1CCCN(C(=O)c2ccc(NC(=O)c3ccccc3Cl)cc2OC)c2ccc(Cl)cc21 (stereo not drawn) [Example 133, 5-(2-Methylaminothiocarbonylaminoethoxy)-7-chloro-1-[2-methoxy-4-(2-chlorobenzoylamino)benzoyl]-2,3,4,5-tetrahydro-1H-benzoazepine] | 72 nM | 20 nM | 49 nM
15 | CCN(CC)CCOC1CCCN(C(=O)c2ccc(N3Cc4ccccc4C3=O)cc2)c2ccc(Cl)cc21 (stereo not drawn) [Example 131, 5-(2-Diethylaminoethoxy)-7-chloro-1-[4-(1-oxoisoindolin-2-yl)benzoyl]-2,3,4,5-tetrahydro-1H-bezoazepine] | 1790 nM | 32 nM | 170 nM
16 | CCOC(=O)NCCOC1CCCN(C(=O)c2ccc(NC(=O)c3ccccc3Cl)cc2OC)c2ccc(Cl)cc21 (stereo not drawn) [Example 137, 5-(2-Ethoxycarbonylaminoethoxy)-7-chloro-1-[2-methoxy-4-(2-chlorobenzoylamino)benzoyl]-2,3,4,5-tetrahydro-1H-benzoazepine] | 451 nM | 17 nM | 5 nM
17 | COc1cc(NC(=O)c2ccccc2Br)ccc1C(=O)N1CCCC(OCCNS(=O)(=O)C(F)(F)F)c2cc(Cl)ccc21 (stereo not drawn) [Example 152, 5-(2-Trifluoromethylsulfonylaminoethoxy)-7-chloro-1-[2-methoxy-4-(2-bromobenzoylamino)benzoyl]-2,3,4,5-tetrahydro-1H-benzoazepine] | 1640 nM | 41 nM | 61 nM

Source: patent US5622947A, “Benzoheterocyclic compounds and vasopressin antagonist and oxytocin antagonist compositions containing a benzoheterocyclic compound” (Otsuka Pharmaceutical Co., Ltd., priority 1992, dated 1997)
